Measured values: patent publication US10308667B2, “Oxadiazolopyridine derivatives for use as ghrelin O-acyl transferase (GOAT) inhibitors” (Boehringer Ingelheim International GmbH, priority 2016, dated 2019)

Target: human GOAT (Homo sapiens (Human), UniProt Q96T53)
Experiment: Determination of hGOAT Activity in HEK293 Cells after Incubation with Test Compound
Assay type: cell-based
Conditions: HEK293 cells stably transfected with preproghrelin and human GOAT; octanoate-BSA 100 μM; acyl-ghrelin in medium by ELISA after 5 hours
Protocol: Determination of hGOAT Activity in HEK293 Cells after Incubation with Test Compound
HEK293 cells stably transfected with two expression vectors, one coding for preproghrelin cDNA and a second for the expression of human GOATcDNA are used as a cellular model. After feeding the cells with octanoic acid for 5 hours, acyl-ghrelin is measured in cell culture medium by an ELISA procedure.
Cellline: Hek293 hGOAT/PPGhrl Clone #1B8Sodium octanoate, Sigma, Cat.-No. C5038
BD Poly-D-Lysin 384-well Plates, black-clear polystyrene BD Bioscience Cat.-No. […] ELISA human acylated Ghrelin Kit purchased from Bertin Pharman (detailed composition of buffers e.g. wash-puffer, ELISA buffer not known)
Cells are plated with a density of 5000 cells/well in 384-well poly-D-lysin plates and incubated for 1 day at 37° C., 5% CO2 in DMEM medium, 10% FCS, 1×NEAA, Puromycin (0.5 μg/ml) and G418 (1 mg/ml). Then the medium is changed to a identical medium without FCS and containing Octanoate-BSA (final concentration 100 μM each) and compound in DMSO (final DMSO concentration 0.3%). After incubation for 5 hours acylghrelin in the medium is measured by ELISA
The medium sample is diluted 1:25 in Elisa buffer, A 25 ul aliquot is transferred to a 384-well ELISA plate previously washed 4 times with 100 μL wash buffer, and 25 μl tracer-solution is added. After incubation overnight (˜20 h) at 4° C. temperature the plate is washed 4 times with 100 μl wash-buffer per well. Finally 50 μl Ellman's reagent is added to each well and the plate is incubated in the dark for 20 minutes. The absorbance is measured at 405 nm in an Envision multilabel reader and the amount of acylated ghrelin is calculated according to a acylated ghrelin standard curve provided in the same plate.
The analysis of the data is performed by calculation of the percentage of acyl-ghrelin produced in the presence of test compound compared to the amount of acyl-ghrelin produced in the vehicle control samples. An inhibitor of the GOAT enzyme will give values between 100% CTL (no inhibition) and 0% CTL (complete inhibition). IC50 values are calculated with Assay Explorer or other suited software based on curve fitting of results of 8 different compound concentrations.

Sequence of human GOAT (Q96T53 whole entry): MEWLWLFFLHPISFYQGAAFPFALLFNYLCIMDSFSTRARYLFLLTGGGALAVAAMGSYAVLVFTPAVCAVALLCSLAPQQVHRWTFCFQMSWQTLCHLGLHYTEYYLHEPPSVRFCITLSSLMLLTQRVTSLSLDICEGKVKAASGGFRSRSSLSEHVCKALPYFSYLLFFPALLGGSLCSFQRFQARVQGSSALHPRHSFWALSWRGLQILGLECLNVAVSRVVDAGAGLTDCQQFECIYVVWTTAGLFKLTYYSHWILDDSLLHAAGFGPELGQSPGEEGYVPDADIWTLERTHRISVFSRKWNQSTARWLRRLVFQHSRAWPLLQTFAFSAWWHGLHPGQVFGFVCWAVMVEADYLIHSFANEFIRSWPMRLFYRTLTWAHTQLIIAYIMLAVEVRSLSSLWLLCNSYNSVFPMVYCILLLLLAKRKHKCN

With `Cc1nc2nonc2c(N)c1Cc1cccc(-c2cn(C)nc2C(F)(F)F)n1` [Example 61, 5-Methyl-6-[6-(1-methyl-3-trifluoromethyl-1H-pyrazol-4-yl)-pyridin-2-ylmethyl]-[1,2,5]oxadiazolo[3,4-b]pyridin-7-ylamine] the IC50 was 0.29 nM.
For `Cc1nc2nonc2c(N)c1Cc1ccc(C#N)c(NC2CC(F)(F)C2)n1` [Example 140, 6-(7-Amino-5-methyl-[1,2,5]oxadiazolo[3,4-b]pyridin-6-ylmethyl)-2-(3,3-difluoro-cyclobutylamino)-nicotinonitrile], the IC50 was 0.15 nM.
Compound `Cc1nc2nonc2c(N)c1Cc1ccc(F)cn1` [Example 12, 6-(5-Fluoro-pyridin-2-ylmethyl)-5-methyl-[1,2,5]oxadiazolo[3,4-b]pyridin-7-ylamine] has an IC50 of 6.5 nM.
For `Cc1nc2nonc2c(N)c1Cc1ccc(C#N)c(OCC2CC2(F)F)n1` (stereo not shown) [Example 112, 6-(7-Amino-5-methyl-[1,2,5]oxadiazolo[3,4-b]pyridin-6-ylmethyl)-2-(2,2-difluoro-cyclopropylmethoxy)-nicotinonitrile], the IC50 was 0.22 nM.
Work on `Cc1nc2nonc2c(N)c1Cc1ccc(-c2cncs2)c(N)n1` [Example 67, 6-(6-Amino-5-thiazol-5-yl-pyridin-2-ylmethyl)-5-methyl-[1,2,5]oxadiazolo[3,4-b]pyridin-7-ylamine] yielded an IC50 of 0.05 nM.
In the case of `Cc1nc2nonc2c(N)c1Cc1ncc(C(F)(F)F)c(N)n1` [Example 46, 2-(7-amino-5-methyl-[1,2,5]oxadiazolo[3,4-b]pyridin-6-ylmethyl)-5-(trifluoromethyl)pyrimidin-4-amine], the IC50 is reported as 0.22 nM.
For `Cc1nc2nonc2c(N)c1Cc1nc(C(F)F)c(Cl)c(C(F)F)n1` [Example 167, 6-[5-chloro-4,6-bis(difluoromethyl)pyrimidin-2-yl]methyl-5-methyl-[1,2,5]oxadiazolo[3,4-b]pyridin-7-amine], the IC50 was 0.82 nM.
In the case of `Cc1nc2nonc2c(N)c1Cc1ccc(C#N)c(OCCF)n1` [Example 106, 6-(7-Amino-5-methyl-[1,2,5]oxadiazolo[3,4-b]pyridin-6-ylmethyl)-2-(2-fluoro-ethoxy)-nicotinonitrile], the IC50 is reported as 0.11 nM.
Work on `Cc1nc2nonc2c(N)c1Cc1ccc(N2CC(F)(F)C2)c(C#N)n1` [Example 151, 6-(7-Amino-5-methyl-[1,2,5]oxadiazolo[3,4-b]pyridin-6-ylmethyl)-3-(3,3-difluoro-azetidin-1-yl)-pyridine-2-carbonitrile] yielded an IC50 of 1.8 nM.
Work on `Cc1nc2nonc2c(N)c1Cc1ccc(C#N)c(S(C)(=O)=O)n1` [Example 162, 6-(7-Amino-5-methyl-[1,2,5]oxadiazolo[3,4-b]pyridin-6-ylmethyl)-2-methanesulfonyl-nicotinonitrile] yielded an IC50 of 4.6 nM.
Compound `Cc1nc2nonc2c(N)c1Cc1ccc(C#N)cn1` [Example 4, 6-(7-Amino-5-methyl-[1,2,5]oxadiazolo[3,4-b]pyridin-6-ylmethyl)-nicotinonitrile] has an IC50 of 1.7 nM.
`COc1ccc(Cc2c(C)nc3nonc3c2N)nc1` [Example 1, 6-(5-Methoxy-pyridin-2-ylmethyl)-5-methyl-[1,2,5]oxadiazolo[3,4-b]pyridin-7-ylamine] gave an IC50 of 1.4 nM.
Compound `Cc1nc2nonc2c(N)c1Cc1cccc(-c2cncn2C)n1` [Example 59, 5-Methyl-6-[6-(3-methyl-3H-imidazol-4-yl)-pyridin-2-ylmethyl]-[1,2,5]oxadiazolo[3,4-b]pyridin-7-ylamine] has an IC50 of 0.34 nM.
With `COC(=O)Cc1ccc(Cc2c(C)nc3nonc3c2N)nc1` [Example 10, [6-(7-Amino-5-methyl-[1,2,5]oxadiazolo[3,4-b]pyridin-6-ylmethyl)-pyridin-3-yl]-acetic Acid Methyl Ester] the IC50 was 13 nM.
Work on `Cc1nc2nonc2c(N)c1Cc1ccc(C2CC2)cn1` [Example 39, 6-[(5-cyclopropylpyridin-2-yl)methyl]-5-methyl-[1,2,5]oxadiazolo[3,4-b]pyridin-7-amine] yielded an IC50 of 0.18 nM.
`Cc1nc2nonc2c(N)c1Cc1ccc(-c2cnn3c2CCC3)c(N)n1` [Example 65, 6-[6-Amino-5-(5,6-dihydro-4H-pyrrolo[1,2-b]pyrazol-3-yl)-pyridin-2-ylmethyl]-5-methyl-[1,2,5]oxadiazolo[3,4-b]pyridin-7-ylamine] showed an IC50 of 0.29 nM.
With `Cc1nc2nonc2c(N)c1Cc1cccc(-c2ccco2)n1` [Example 57, 6-(6-Furan-2-yl-pyridin-2-ylmethyl)-5-methyl-[1,2,5]oxadiazolo[3,4-b]pyridin-7-ylamine] the IC50 was 0.1 nM.
`Cc1nc2nonc2c(N)c1Cc1ccc(C#N)c(N2CCOCC2)n1` [Example 136, 6-(7-Amino-5-methyl-[1,2,5]oxadiazolo[3,4-b]pyridin-6-ylmethyl)-2-morpholin-4-yl-nicotinonitrile] was tested, and the IC50 was 0.033 nM.
`Cc1nc2nonc2c(N)c1Cc1cccc([S+](C)[O-])n1` (stereo not shown) [Example 85, 6-(6-Methanesulfinyl-pyridin-2-ylmethyl)-5-methyl-[1,2,5]oxadiazolo[3,4-b]pyridin-7-ylamine] gave an IC50 of 6.9 nM.
Work on `Cc1nc2nonc2c(N)c1Cc1ccc(C2CC2)c(C#N)n1` [Example 42, 6-(7-amino-5-methyl-[1,2,5]oxadiazolo[3,4-b]pyridin-6-ylmethyl)-3-cyclopropylpyridine-2-carbonitrile] yielded an IC50 of 0.073 nM.
Work on `Cc1nc2nonc2c(N)c1Cc1ccc(-c2c(C)noc2C)c(N)n1` [Example 66, 6-[6-Amino-5-(3,5-dimethyl-isoxazol-4-yl)-pyridin-2-ylmethyl]-5-methyl-[1,2,5]oxadiazolo[3,4-b]pyridin-7-ylamine] yielded an IC50 of 0.14 nM.
Work on `Cc1nc2nonc2c(N)c1Cc1ccc(Cl)cn1` [Example 8, 6-(5-Chloro-pyridin-2-ylmethyl)-5-methyl-[1,2,5]oxadiazolo[3,4-b]pyridin-7-ylamine] yielded an IC50 of 0.42 nM.
`Cc1nc2nonc2c(N)c1Cc1cc(C(N)=O)ccn1` [Example 29, 2-(7-Amino-5-methyl-[1,2,5]oxadiazolo[3,4-b]pyridin-6-ylmethyl)-isonicotinamide] showed an IC50 of 16 nM.
Compound `Cc1nc2nonc2c(N)c1Cc1ccc(C#N)c(OCC2(C)COC2)n1` [Example 111, 6-(7-Amino-5-methyl-[1,2,5]oxadiazolo[3,4-b]pyridin-6-ylmethyl)-2-(3-methyl-oxetan-3-ylmethoxy)-nicotinonitrile] has an IC50 of 0.1 nM.
`Cc1nc2nonc2c(N)c1Cc1ncc(Br)c(C(F)(F)F)n1` [Example 83, 6-[5-bromo-4-(trifluoromethyl)pyrimidin-2-yl]methyl-5-methyl-[1,2,5]oxadiazolo[3,4-b]pyridin-7-amine] gave an IC50 of 0.077 nM.
In the case of `Cc1nc2nonc2c(N)c1Cc1ccc(Br)c(NCC2(C)CCOC2)n1` (stereo not shown) [Example 126, 6-{5-Bromo-6-[(3-methyl-tetrahydro-furan-3-ylmethyl)-amino]-pyridin-2-ylmethyl}-5-methyl-[1,2,5]oxadiazolo[3,4-b]pyridin-7-ylamine], the IC50 is reported as 0.17 nM.
Compound `Cc1nc2nonc2c(N)c1Cc1ccc(Cl)c(C#N)n1` [Example 47, 6-(7-amino-5-methyl-[1,2,5]oxadiazolo[3,4-b]pyridin-6-ylmethyl)-3-chloropyridine-2-carbonitrile] has an IC50 of 2.4 nM.
`Cc1nc2nonc2c(N)c1Cc1ccc(C#N)c(OC(F)F)n1` [Example 73, 6-(7-Amino-5-methyl-[1,2,5]oxadiazolo[3,4-b]pyridin-6-ylmethyl)-2-difluoromethoxy-nicotinonitrile] showed an IC50 of 0.33 nM.
`Cc1nc2nonc2c(N)c1Cc1cccc(Br)n1` [Example 7, 6-(6-Bromo-pyridin-2-ylmethyl)-5-methyl-[1,2,5]oxadiazolo[3,4-b]pyridin-7-ylamine] was tested, and the IC50 was 0.95 nM.
Work on `CSc1ccc(Cc2c(C)nc3nonc3c2N)nc1` [Example 44, 5-Methyl-6-(5-methylsulfanyl-pyridin-2-ylmethyl)-[1,2,5]oxadiazolo[3,4-b]pyridin-7-ylamine] yielded an IC50 of 0.17 nM.
`Cc1nc2nonc2c(N)c1Cc1ccc(C#N)c(N2CCC(F)(F)C2)n1` [Example 143, 6-(7-Amino-5-methyl-[1,2,5]oxadiazolo[3,4-b]pyridin-6-ylmethyl)-2-(3,3-difluoro-pyrrolidin-1-yl)-nicotinonitrile] showed an IC50 of 0.046 nM.
For `Cc1nc2nonc2c(N)c1Cc1ccc([S+](C)[O-])cn1` (stereo not shown) [Example 87, 6-(5-Methanesulfinyl-pyridin-2-ylmethyl)-5-methyl-[1,2,5]oxadiazolo[3,4-b]pyridin-7-ylamine], the IC50 was 9 nM.
For `Cc1nc2nonc2c(N)c1Cc1ccc(S(C)(=O)=O)c(S(C)(=O)=O)n1` [Example 160, 6-(5,6-Bis-methanesulfonyl-pyridin-2-ylmethyl)-5-methyl-[1,2,5]oxadiazolo[3,4-b]pyridin-7-ylamine], the IC50 was 3 nM.
`Cc1nc2nonc2c(N)c1Cc1ccc(C#N)c(OCCC(F)(F)F)n1` [Example 110, 6-(7-Amino-5-methyl-[1,2,5]oxadiazolo[3,4-b]pyridin-6-ylmethyl)-2-(3,3,3-trifluoro-propoxy)-nicotinonitrile] showed an IC50 of 0.28 nM.
